Data published in PMC5218480 (PLoS ONE, 2017).

Tested on: MV-4-11 cells
Test: Gene expression microarray analysis (Affymetrix PrimeView) and GSEA
Format: cell-based, human
Parameters: RFU PODN (11730768_x_at) / Fold change /veh PODN (11730768_x_at) / RFU LINC00158 (11744669_a_at) / Fold change /veh LINC00158 (11744669_a_at) / RFU DUSP10 (11751237_a_at) / Fold change /veh DUSP10 (11751237_a_at) / RFU ID3 (11757404_x_at) / Fold change /veh ID3 (11757404_x_at) / RFU PLEKHG5 (11737974_s_at) / Fold change /veh PLEKHG5 (11737974_s_at) / RFU LRRC4B (11730491_at) / Fold change /veh LRRC4B (11730491_at) / RFU GIMAP4 (11747438_a_at) / Fold change /veh GIMAP4 (11747438_a_at) / RFU KRT8 (11758183_x_at) / Fold change /veh KRT8 (11758183_x_at) / RFU CNN1 (11734310_a_at) / Fold change /veh CNN1 (11734310_a_at) / RFU VPS37D (11726825_at) / Fold change /veh VPS37D (11726825_at) / RFU C10orf10 (11716522_x_at) / Fold change /veh C10orf10 (11716522_x_at) / RFU KIR2DL2 /// KIR2DL4 /// KIR2DL5A /// KIR2DL5B /// KIR2DS1 /// KIR2DS2 /// KIR2DS3 /// KIR2DS4 /// KIR3DL3 /// KIR3DL3 /// KIR3DS1 (11738374_at) / Fold change /veh KIR2DL2 /// KIR2DL4 /// KIR2DL5A /// KIR2DL5B /// KIR2DS1 /// KIR2DS2 /// KIR2DS3 /// KIR2DS4 /// KIR3DL3 /// KIR3DL3 /// KIR3DS1 (11738374_at) / RFU C1QL1 (11718748_at) / Fold change /veh C1QL1 (11718748_at) / RFU TMPRSS4 (11747572_a_at) / Fold change /veh TMPRSS4 (11747572_a_at) / RFU HAMP (11756126_x_at) / Fold change /veh HAMP (11756126_x_at) / RFU RNFT2 (11725882_a_at) / Fold change /veh RNFT2 (11725882_a_at) / RFU NR4A2 (11747474_a_at) / Fold change /veh NR4A2 (11747474_a_at) / RFU ABCC12 (11746883_a_at) / Fold change /veh ABCC12 (11746883_a_at) / RFU TMEM136 (11760407_x_at) / Fold change /veh TMEM136 (11760407_x_at) / RFU CLDN22 /// WWC2 (11732394_at) / Fold change /veh CLDN22 /// WWC2 (11732394_at) / RFU HLA-DPB1 (11760878_x_at) / Fold change /veh HLA-DPB1 (11760878_x_at) / RFU SPINT1 (11716480_a_at) / Fold change /veh SPINT1 (11716480_a_at) / RFU GAP43 (11754022_s_at) / Fold change /veh GAP43 (11754022_s_at) / RFU A4GNT (11735810_at) / Fold change /veh A4GNT (11735810_at) / RFU PRB3 (11715151_x_at) / Fold change /veh PRB3 (11715151_x_at) / RFU TUBB4B (11761932_at) / Fold change /veh TUBB4B (11761932_at) / RFU CAPN14 (11732068_a_at) / Fold change /veh CAPN14 (11732068_a_at) / RFU TMCC2 (11721928_a_at) / Fold change /veh TMCC2 (11721928_a_at) / RFU IRGQ (11745062_a_at) / Fold change /veh IRGQ (11745062_a_at) / RFU FAM174B (11720279_a_at) / Fold change /veh FAM174B (11720279_a_at) / RFU TMPRSS4 (11748680_a_at) / Fold change /veh TMPRSS4 (11748680_a_at) / RFU FAM212B (11763350_a_at) / Fold change /veh FAM212B (11763350_a_at) / RFU PLEKHG5 (11743358_a_at) / Fold change /veh PLEKHG5 (11743358_a_at) / RFU ZSCAN30 (11745921_a_at) / Fold change /veh ZSCAN30 (11745921_a_at) / RFU CMKLR1 (11741424_a_at) / Fold change /veh CMKLR1 (11741424_a_at) / RFU LOC101060620 /// MAPK8IP1 (11723275_at) / Fold change /veh LOC101060620 /// MAPK8IP1 (11723275_at) / RFU SPTSSB (11747773_x_at) / Fold change /veh SPTSSB (11747773_x_at) / RFU PRSS12 (11739890_at) / Fold change /veh PRSS12 (11739890_at) / RFU BIN1 (11741810_x_at) / Fold change /veh BIN1 (11741810_x_at) / RFU WNT11 (11732464_a_at) / Fold change /veh WNT11 (11732464_a_at) / RFU C10orf10 (11716521_a_at) / Fold change /veh C10orf10 (11716521_a_at) / RFU C5orf56 (11738089_at) / Fold change /veh C5orf56 (11738089_at) / RFU CYB561 (11721691_x_at) / Fold change /veh CYB561 (11721691_x_at) / RFU ANKRD19P (11752326_a_at) / Fold change /veh ANKRD19P (11752326_a_at) / RFU OR2T12 /// OR2T33 /// OR2T8 (11738714_s_at) / Fold change /veh OR2T12 /// OR2T33 /// OR2T8 (11738714_s_at) / RFU VCAN (11748164_a_at) / Fold change /veh VCAN (11748164_a_at) / RFU JSRP1 (11732532_at) / Fold change /veh JSRP1 (11732532_at) / RFU KRTAP10-11 (11738290_x_at) / Fold change /veh KRTAP10-11 (11738290_x_at) / RFU MYO3A (11730013_a_at) / Fold change /veh MYO3A (11730013_a_at) / RFU EBF3 (11725865_a_at) / Fold change /veh EBF3 (11725865_a_at) / RFU CAMK2N1 (11719241_x_at) / Fold change /veh CAMK2N1 (11719241_x_at) / RFU C5orf56 (11738088_a_at) / Fold change /veh C5orf56 (11738088_a_at) / RFU OLFML3 (11715873_a_at) / Fold change /veh OLFML3 (11715873_a_at) / RFU LOC100653217 /// NTM (11731650_a_at) / Fold change /veh LOC100653217 /// NTM (11731650_a_at) / RFU MAPK11 (11762145_a_at) / Fold change /veh MAPK11 (11762145_a_at) / RFU FIZ1 (11724087_x_at) / Fold change /veh FIZ1 (11724087_x_at) / RFU OASL (11726364_x_at) / Fold change /veh OASL (11726364_x_at) / RFU SOX15 (11748057_x_at) / Fold change /veh SOX15 (11748057_x_at) / RFU CD79A (11719716_a_at) / Fold change /veh CD79A (11719716_a_at) / RFU HIST1H1D (11736915_at) / Fold change /veh HIST1H1D (11736915_at) / RFU CASKIN2 (11723855_a_at) / Fold change /veh CASKIN2 (11723855_a_at) / RFU LOC730098 (11760151_x_at) / Fold change /veh LOC730098 (11760151_x_at) / RFU OR4N2 (11742367_at) / Fold change /veh OR4N2 (11742367_at) / RFU PRRT2 (11749266_a_at) / Fold change /veh PRRT2 (11749266_a_at) / RFU SNX32 (11753110_a_at) / Fold change /veh SNX32 (11753110_a_at) / RFU CDHR5 (11726645_a_at) / Fold change /veh CDHR5 (11726645_a_at) / RFU RCAN1 (11760418_a_at) / Fold change /veh RCAN1 (11760418_a_at) / RFU FAM167A (11723789_a_at) / Fold change /veh FAM167A (11723789_a_at) / RFU FAM26E (11764081_at) / Fold change /veh FAM26E (11764081_at) / RFU ISYNA1 (11749810_s_at) / Fold change /veh ISYNA1 (11749810_s_at) / RFU ACY1 (11761880_at) / Fold change /veh ACY1 (11761880_at) / RFU 11764098_at / Fold change /veh 11764098_at / RFU SAMD14 (11745864_x_at) / Fold change /veh SAMD14 (11745864_x_at) / RFU NPB (11741838_a_at) / Fold change /veh NPB (11741838_a_at) / RFU TMPRSS6 (11731388_a_at) / Fold change /veh TMPRSS6 (11731388_a_at) / RFU KRTAP10-2 (11738614_at) / Fold change /veh KRTAP10-2 (11738614_at) / RFU ARHGAP8 /// PRR5-ARHGAP8 (11727945_x_at) / Fold change /veh ARHGAP8 /// PRR5-ARHGAP8 (11727945_x_at) / RFU KRTAP5-7 /// NADSYN1 (11734609_at) / Fold change /veh KRTAP5-7 /// NADSYN1 (11734609_at) / RFU RASL12 (11751679_a_at) / Fold change /veh RASL12 (11751679_a_at) / RFU CDKN2B (11736163_a_at) / Fold change /veh CDKN2B (11736163_a_at) / RFU PRF1 (11729649_at) / Fold change /veh PRF1 (11729649_at) / RFU, ZNF638 /// ZNF638-IT1 / Fold change vs veh, ZNF638 /// ZNF638-IT1 / RFU, PANK3 / Fold change vs veh, PANK3 / RFU, SH3YL1 / Fold change vs veh, SH3YL1 / RFU, ZEB2 / Fold change vs veh, ZEB2 / RFU, NRIP1 / Fold change vs veh, NRIP1 / RFU, PTTG1IP / Fold change vs veh, PTTG1IP / RFU, CAPN2 / Fold change vs veh, CAPN2 / RFU, MED14 / Fold change vs veh, MED14 / RFU, SNORA58 / Fold change vs veh, SNORA58 / RFU, C1orf63 / Fold change vs veh, C1orf63 / RFU, LRRFIP1 / Fold change vs veh, LRRFIP1 / RFU, NDUFAF7 / Fold change vs veh, NDUFAF7 / RFU, SLC12A2 / Fold change vs veh, SLC12A2 / RFU, IBTK / Fold change vs veh, IBTK / RFU, ESF1 / Fold change vs veh, ESF1 / Fold change vs veh, TMEM50B / RFU, TAOK1 / Fold change vs veh, TAOK1 / RFU, ACBD3 / Fold change vs veh, ACBD3 / RFU, TMA16 / Fold change vs veh, TMA16 / RFU, RWDD3 / Fold change vs veh, RWDD3 / RFU, BCAT1 / Fold change vs veh, BCAT1 / RFU, EDEM3 / Fold change vs veh, EDEM3 / RFU, TMEM33 / Fold change vs veh, TMEM33 / RFU, WDR75 / Fold change vs veh, WDR75 / RFU, AHCTF1 / Fold change vs veh, AHCTF1 / RFU, TFRC / Fold change vs veh, TFRC / RFU, ZDHHC17 / Fold change vs veh, ZDHHC17 / RFU, NOM1 / Fold change vs veh, NOM1 / RFU, ARL8B / Fold change vs veh, ARL8B / RFU, ZBTB11 / Fold change vs veh, ZBTB11 / RFU, TAMM41 / Fold change vs veh, TAMM41 / RFU, KIAA1704 /// LOC100996395 / Fold change vs veh, KIAA1704 /// LOC100996395 / RFU, ING1 / Fold change vs veh, ING1 / RFU, TRMT61B / Fold change vs veh, TRMT61B / RFU, FUBP3 / Fold change vs veh, FUBP3 / RFU, TP53 / Fold change vs veh, TP53 / RFU, TNKS2 / Fold change vs veh, TNKS2 / RFU, ZFP14 / Fold change vs veh, ZFP14 / RFU, ACTR2 / Fold change vs veh, ACTR2 / RFU, PPP3R1 / Fold change vs veh, PPP3R1 / RFU, PIK3R1 / Fold change vs veh, PIK3R1 / RFU, HNRNPA1 / Fold change vs veh, HNRNPA1 / RFU, RNF170 / Fold change vs veh, RNF170 / RFU, ZNF28 / Fold change vs veh, ZNF28 / RFU, RNGTT / Fold change vs veh, RNGTT / RFU, OGT / Fold change vs veh, OGT / RFU, BRD1 / Fold change vs veh, BRD1 / RFU, MARS / Fold change vs veh, MARS / RFU, ZNF655 / Fold change vs veh, ZNF655 / RFU, FAHD1 / Fold change vs veh, FAHD1 / RFU, BDP1 / Fold change vs veh, BDP1 / RFU, LRRCC1 / Fold change vs veh, LRRCC1 / RFU, ARID1A / Fold change vs veh, ARID1A / RFU, ZNF146 / Fold change vs veh, ZNF146 / RFU, ZNF330 / Fold change vs veh, ZNF330 / RFU, GPN3 / Fold change vs veh, GPN3 / RFU, C9orf123 / Fold change vs veh, C9orf123 / RFU, N4BP2L2 / Fold change vs veh, N4BP2L2 / RFU, ARFIP1 / Fold change vs veh, ARFIP1 / RFU, FAM179B / Fold change vs veh, FAM179B / RFU, BCL10 / Fold change vs veh, BCL10 / RFU, UHRF1BP1L / Fold change vs veh, UHRF1BP1L / RFU, BET1 / Fold change vs veh, BET1 / RFU, CNOT2 / Fold change vs veh, CNOT2 / RFU, ZNF268 / Fold change vs veh, ZNF268 / Fold change vs veh, ZNF507 / RFU, DGCR2 / Fold change vs veh, DGCR2 / RFU, WDSUB1 / Fold change vs veh, WDSUB1 / Fold change vs veh, HSP90B1 /// MIR3652 / RFU, ADSS / Fold change vs veh, ADSS / RFU, GK / Fold change vs veh, GK / RFU, ZNF148 / Fold change vs veh, ZNF148 / RFU, TAF9 / Fold change vs veh, TAF9 / RFU, SLC1A5 / Fold change vs veh, SLC1A5 / RFU, SLMO2 / Fold change vs veh, SLMO2 / RFU, ABCC4 / Fold change vs veh, ABCC4 / RFU, LOC101060439 /// RAP1B / Fold change vs veh, LOC101060439 /// RAP1B / RFU, RFX7 / Fold change vs veh, RFX7 / RFU, GTPBP10 / Fold change vs veh, GTPBP10 / RFU, CNEP1R1 / Fold change vs veh, CNEP1R1 / RFU, BIVM-ERCC5 /// ERCC5 / Fold change vs veh, BIVM-ERCC5 /// ERCC5 / RFU, ILF3 / Fold change vs veh, ILF3 / RFU 11762660_at / Fold change /veh 11762660_at / RFU VCAN (11757783_s_at) / Fold change /veh VCAN (11757783_s_at) / RFU DDX43 (11728927_at) / Fold change /veh DDX43 (11728927_at) / RFU KRT8 (11758188_x_at) / Fold change /veh KRT8 (11758188_x_at) / RFU NKD1 (11759106_at) / Fold change /veh NKD1 (11759106_at) / RFU SRD5A1 (11742802_a_at) / Fold change /veh SRD5A1 (11742802_a_at) / RFU TPSAB1 /// TPSB2 (11721975_s_at) / Fold change /veh TPSAB1 /// TPSB2 (11721975_s_at) / RFU GSTM3 (11746129_a_at) / Fold change /veh GSTM3 (11746129_a_at) / RFU IL23R (11737362_x_at) / Fold change /veh IL23R (11737362_x_at) / RFU TMEM51 (11727254_a_at) / Fold change /veh TMEM51 (11727254_a_at) / RFU PIWIL2 (11732686_x_at) / Fold change /veh PIWIL2 (11732686_x_at) / RFU ORM1 (11744905_x_at) / Fold change /veh ORM1 (11744905_x_at) / RFU CCDC152 (11743942_at) / Fold change /veh CCDC152 (11743942_at) / RFU ECM1 (11717891_a_at) / Fold change /veh ECM1 (11717891_a_at) / RFU IL23R (11748794_a_at) / Fold change /veh IL23R (11748794_a_at) / RFU TNFAIP8L3 (11732012_x_at) / Fold change /veh TNFAIP8L3 (11732012_x_at) / RFU MBOAT4 (11741988_at) / Fold change /veh MBOAT4 (11741988_at) / RFU 11764193_at / Fold change /veh 11764193_at / RFU TMEM53 (11763286_at) / Fold change /veh TMEM53 (11763286_at) / RFU MAGEB2 (11727129_at) / Fold change /veh MAGEB2 (11727129_at) / RFU TMEM200A (11744735_a_at) / Fold change /veh TMEM200A (11744735_a_at) / RFU CCDC152 (11751479_a_at) / Fold change /veh CCDC152 (11751479_a_at) / RFU FAM211A (11726209_a_at) / Fold change /veh FAM211A (11726209_a_at) / RFU RGS16 (11746705_a_at) / Fold change /veh RGS16 (11746705_a_at) / RFU VCAN (11755009_s_at) / Fold change /veh VCAN (11755009_s_at) / RFU RHOB (11743442_s_at) / Fold change /veh RHOB (11743442_s_at) / RFU RGS16 (11720943_a_at) / Fold change /veh RGS16 (11720943_a_at) / RFU RGS16 (11720944_at) / Fold change /veh RGS16 (11720944_at) / RFU, VPS4B / Fold change vs veh, VPS4B / RFU, CREB1 / Fold change vs veh, CREB1 / RFU, DNAJC13 / Fold change vs veh, DNAJC13 / RFU, GNAQ / Fold change vs veh, GNAQ / RFU, CDK5R1 / Fold change vs veh, CDK5R1 / RFU, ZRANB3 / Fold change vs veh, ZRANB3 / RFU, CUL4A / Fold change vs veh, CUL4A / RFU, CCNY / Fold change vs veh, CCNY / RFU, UFL1 / Fold change vs veh, UFL1 / RFU, COG3 / Fold change vs veh, COG3 / RFU, DIAPH2 / Fold change vs veh, DIAPH2 / RFU, SKA2 / Fold change vs veh, SKA2 / RFU, AFF3 / Fold change vs veh, AFF3 / RFU, LMF1 / Fold change vs veh, LMF1 / RFU, IPO11 / Fold change vs veh, IPO11 / RFU, DFFB / Fold change vs veh, DFFB / RFU, FOXP1 / Fold change vs veh, FOXP1 / RFU, CARD8 / Fold change vs veh, CARD8 / RFU, STRN3 / Fold change vs veh, STRN3 / RFU, ADK / Fold change vs veh, ADK / RFU, RASSF2 / Fold change vs veh, RASSF2 / RFU, WIPF1 / Fold change vs veh, WIPF1 / RFU, LARP1B / Fold change vs veh, LARP1B / RFU, RASA1 / Fold change vs veh, RASA1 / RFU, RB1 / Fold change vs veh, RB1 / RFU, PPFIA1 / Fold change vs veh, PPFIA1 / RFU, MAT2A / Fold change vs veh, MAT2A / RFU, CCT5 / Fold change vs veh, CCT5 / RFU, WDR92 / Fold change vs veh, WDR92 / RFU, CUX1 / Fold change vs veh, CUX1 / RFU, TTC7A / Fold change vs veh, TTC7A / RFU, TMEM135 / Fold change vs veh, TMEM135 / RFU, DEPTOR / Fold change vs veh, DEPTOR / RFU, CPM / Fold change vs veh, CPM / RFU, DNAJB6 / Fold change vs veh, DNAJB6 / RFU, CACNA2D3 / Fold change vs veh, CACNA2D3 / RFU, DTX4 / Fold change vs veh, DTX4 / RFU, TFCP2 / Fold change vs veh, TFCP2 / RFU, GMCL1 /// GMCL1P1 / Fold change vs veh, GMCL1 /// GMCL1P1 / RFU, AEBP2 / Fold change vs veh, AEBP2 / RFU, SNHG1 /// SNORD22 /// SNORD25 /// SNORD26 /// SNORD27 /// SNORD28 /// SNORD29 /// SNORD31 / Fold change vs veh, SNHG1 /// SNORD22 /// SNORD25 /// SNORD26 /// SNORD27 /// SNORD28 /// SNORD29 /// SNORD31 / Fold change (Aza/veh), C12orf56 (ProbeSet 11735607_a_at) / Fold change (ACY-1035/veh), C12orf56 (ProbeSet 11735607_a_at) / Fold change (Aza/veh), FGFR1OP (ProbeSet 11751329_s_at) / Fold change (ACY-1035/veh), FGFR1OP (ProbeSet 11751329_s_at) / Fold change (Aza/veh), VPS36 (ProbeSet 11739960_a_at) / Fold change (ACY-1035/veh), VPS36 (ProbeSet 11739960_a_at) / RFU SYPL1 (11715823_x_at) / Fold change /veh SYPL1 (11715823_x_at) / RFU IGFBP7 (11715501_s_at) / Fold change /veh IGFBP7 (11715501_s_at) / RFU REEP3 (11722064_at) / Fold change /veh REEP3 (11722064_at) / RFU IGLL1 (11728026_x_at) / Fold change /veh IGLL1 (11728026_x_at): dose or concentration left out as unconfirmed
Conditions: MV-4-11 cells, 48 hours

`Nc1ncn([C@@H]2O[C@H](CO)[C@@H](O)[C@H]2O)c(=O)n1` [azacitidine] was tested, and the “Fold change /veh WNT11 (11732464_a_at)” value was 0.83.
